Columns and labels:
[1] = system: isolated rat hearts; test: Isolated working rat heart, aerobic perfusion: cardiac function and efficiency; set-up: Cardiac Work (CO · PSP): unit not given beside the values; conditions: aerobically perfused, DCA 2 mM, diltiazem 0.8 μM, digoxin 3 nM, metoprolol 1 μM, dobutamine 1 μM
Method: (§1) Rat hearts were cannulated for isolated working heart perfusions as described in “An imbalance between glycolysis and glucose oxidation is a possible explanation for the detrimental effects of high levels of fatty acids during aerobic reperfusion of ischemic hearts.”, (J Pharmacol Exp Ther. 264:135 (1993); herein incorporated by reference. In brief, male Sprague-Dawley rats (0.3-0.35 kg) were anesthetized with pentobarbital sodium (60 mg/kg IP) and hearts were quickly excised, the aorta was cannulated and a retrograde perfusion at 37° C. was initiated at a hydrostatic pressure of 60 mm Hg. Hearts were trimmed of excess tissue, and the pulmonary artery and the opening to the left atrium were then cannulated. After 15 min of Langendorff perfusion, hearts were switched to the working mode by clamping the aortic inflow line from the Langendorff reservoir and opening the left atrial inflow line. The perfusate was delivered from an oxygenator into the left atrium at a constant preload pressure of 11 mm Hg. Perfusate was ejected from spontaneously beating hearts into a compliance chamber (containing 1 ml of air) and into the aortic outflow line. The afterload was set at a hydrostatic pressure of 80 mm Hg. All working hearts were perfused with Krebs'-Henseleit solution containing calcium 2.5 mmol/L, glucose 5.5 mmol/L, 3% bovine serum albumin (Fraction V, Boehringer Mannheim), and with 1.2 mmol/L palmitate. Palmitate was bound to the albumin as described previously (Saddik M., et al. J Biol. Chem. 267:3825-3831 (1992)). The perfusate was recirculated, and pH was adjusted to 7.4 by bubbling with a mixture containing 95% O2 and 5% CO2. For the aerobic model hearts, all tested compounds were introduced into the heart 5 minutes into the working mode following Langendorff Perfusion.
Spontaneously beating hearts were used in all perfusions. Heart rate and aortic pressure were measured with a Biopac Systems Inc. blood pressure transducer connected to the aortic outflow line. Cardiac output and aortic flow were measured with Transonic T206 ultrasonic flow probes in the preload and afterload lines, respectively. Coronary flow was calculated as the difference between cardiac output and aortic flow. The O2 contents of the perfusate entering and leaving the heart were measured using YSI™ micro oxygen electrodes placed in the preload and pulmonary arterial lines, respectively. Myocardial O2 consumption (MVO2) was calculated according to the Fick principle, using coronary flow rates and the arteriovenous difference in perfusate O2 concentration. Cardiac work was calculated as the product of systolic pressure and cardiac output. Cardiac efficiency was defined as a ratio of cardiac work to MVO2.

[2] = system: isolated rat hearts subjected to low flow demand ischemia; test: Isolated working rat heart, low flow demand ischemia: cardiac function and efficiency; conditions: for Aortic Outflow / Cardiac Output / Coronary Flow / HR × PSP / Heart Rate / Peak Systolic Pressure: DCA 2 mM, diltiazem 0.8 μM, metoprolol 1 μM
Method: Hearts were trimmed of excess tissue, and the pulmonary artery and the opening to the left atrium were then cannulated. After 15 min of Langendorff perfusion, hearts were switched to the working mode by clamping the aortic inflow line from the Langendorff reservoir and opening the left atrial inflow line. The perfusate was delivered from an oxygenator into the left atrium at a constant preload pressure of 11 mm Hg. […] The afterload was set at a hydrostatic pressure of 80 mm Hg. […] Palmitate was bound to the albumin as described previously ([…]., et al. J Biol. Chem. 267:3825-3831 (1992)). […] For the aerobic model hearts, all tested compounds were introduced into the heart 5 minutes into the working mode following Langendorff Perfusion. Spontaneously beating hearts were used in all perfusions. Heart rate and aortic pressure were measured with a Biopac Systems Inc. blood pressure transducer connected to the aortic outflow line. Cardiac output and aortic flow were measured with Transonic […] ultrasonic flow probes in the preload and afterload lines, respectively. Coronary flow was calculated as the difference between cardiac output and aortic flow. […] Cardiac work was calculated as the product of systolic pressure and cardiac output. Cardiac efficiency was defined as a ratio of cardiac work to MVO2. […] All tested compounds were introduced into the perfusate five minutes into initiation of aerobic perfusion.

[3] = system: isolated rat hearts subjected to low flow demand ischemia; test: Isolated working rat heart, low flow demand ischemia: glycolysis and glucose oxidation; conditions: FIG. 22, FIG. 28
[4] = system: isolated rat hearts; test: Isolated working rat heart, aerobic perfusion: glycolysis and glucose oxidation; set-up: glycolytic rates (glycolysis) / glucose oxidation rates: unit not given here; conditions: normal hearts, aerobic; FIG. 2, 4, 6, 8; control 3.430±0.604; DCA 2 mM, digoxin 3 nM, diltiazem 0.8 μM, dobutamine 1 μM, metoprolol 1 μM
Method: as §1
Glycolysis and glucose oxidation were measured simultaneously by perfusing hearts with [5-^3H/U-^14C] glucose (Liu H., et al. Am J Physiol. 270:H72-H80 (1996); Taegtmeyer Het al. Am J Cardiol. 80:3A-10A (1997)). The total myocardial ^3H2O production and ^14CO2 production were determined at 10 minute intervals for the entirety of the aerobic period, 60 minutes for normal hearts and 30 minutes for the global ischemia and low flow demand ischemia models. In the global ischemia model, the total myocardial ^3H2O and ^14CO2 production were determined at 20 minute intervals for the 60 minute reperfusion period. In the low flow demand ischemia model, the total myocardial ^3H2O and ^14CO2 production were determined at 10 minute intervals for the 30 minute reperfusion period. Glucose oxidation rates were determined by quantitative measurement of ^14CO2 production as described previously (Barbour R. L., et al. Biochemistr. 1923:6503-6062 (1984)).

[5] = low flow ischemia: aerobic period
[6] = low flow ischemia: ischemic period

For COc1ccc([C@@H]2Sc3ccccc3N(CCN(C)C)C(=O)[C@@H]2OC(C)=O)cc1 [Diltiazem, diltiazem], the “Aortic Outflow” value [1] was 21 ± 1 mL/min, the “Cardiac Efficiency (CW · O2^−1)” value [1] was 1.63 ± 0.37 and the “Cardiac Output” value [1] was 41 ± 1 mL/min. For the same compound, the “Cardiac Work (CO · PSP)” value [1] was 51 ± 1, the “Coronary Flow” value [1] was 20 ± 1 mL/min and the “HR × PSP” value [1] was 25 ± 1 beats · min^−1 · mmHg · 10^−2. The “Heart Rate” value [1] was 202 ± 3 beats · min^−1, the “O2 Consumption” value [1] was 38 ± 9 μmolO2 · g dry wt^−1 · min^−1 and the “Peak Systolic Pressure” value [1] was 127 ± 4 mmHg. The “Aortic Outflow” value ([1]; listed as diltiazem) was 21 ± 1 mL/min, the “Cardiac Work (CO · PSP)” value ([1]; listed as diltiazem) was 51±1 and the “HR × PSP” value ([1]; listed as diltiazem) was 25±1 beats · min^−1 · mmHg · 10^−2. The “Heart Rate” value ([1]; listed as diltiazem) was 202±3 beats · min^−1, the “peak systolic pressure, effect in words” value ([2]; low flow demand ischemia, Table 1) was “decreased” and the “Aortic Outflow” value [2, 5] was 22 ± 1 mL/min. For the same compound, the “Cardiac Output” value [2, 5] was 43 ± 1 mL/min, the “Coronary Flow” value [2, 5] was 21 ± 1 mL/min and the “HR × PSP” value [2, 5] was 28 ± 1 beats · min^−1 · mmHg · 10^−2. The “Heart Rate” value [2, 5] was 215 ± 6 beats · min^−1, the “Peak Systolic Pressure” value [2, 5] was 131 ± 6 mmHg and the “Aortic Outflow” value [2, 6] was 11 ± 4 mL/min. For the same compound, the “Cardiac Output” value [2, 6] was 24 ± 4 mL/min, the “Coronary Flow” value [2, 6] was 13 ± 1 mL/min and the “HR × PSP” value [2, 6] was 28 ± 1 beats · min^−1 · mmHg · 10^−2. For the same compound, the “Heart Rate” value [2, 6] was 215 ± 6 beats · min^−1, the “Peak Systolic Pressure” value [2, 6] was 131 ± 6 mmHg and the “cardiac function, in words” value ([2]; low-flow ischemic period, FIG. 23, FIG. 29) was “Neither diltiazem, DCA, nor DCA with diltiazem significantly affected”. The “glycolysis, in words” value [3] was “some attenuation” and the “glycolytic rates (glycolysis)” value [4] was 0.727±0.160.

From patent publication US20120064056A1, “DICHLORACETATE IN COMBINATION WITH CLINICALLY HIGH LEVELS OF CARDIOPROTECTIVE OR HEMODYNAMIC DRUGS” (THE GOVERNORS OF THE UNIVERSITY OF ALBERTA TEC Edmonton, priority 2002, published 2012)
